Columns and labels:
lung cancer (tumor) = test: ELISA for AKAP-4 expression in tumor and lung tissue; format: in vivo, mice; conditions: tumor and lung tissue lysates
Source text: The wells were coated with tumor and lung tissue lysates.

5TGM1 cells [1] = test: Chemotaxis assay (Transwell); format: cell-based, murine
Procedure: Chemotaxis assay. 5TGM1 cells (4×10^5/well) were plated in 100 μL serum-free medium in the top chambers of 24-well Transwell™ inserts (Corning Costar, N.Y., USA) with 8-μm. Complete cell culture medium (600 μL) containing 10% FBS was added to the bottom chamber. Cells were treated for 4 hours with Gal3M (10 μg/ml), carfilzomib (10 nM) or carfilzomib plus Gal3M (same doses), and 5TGM1 cells in the lower chamber were fixed and counted.

[2] = MM patients; cited from earlier work
5TGM1 mice [3] = test: IHC for osteocalcin and Cathepsin K on decalcified bones; format: in vivo
Procedure: Immunohistochemistry. Immunohistochemistry analysis of markers of osteoclasts (anti-Cathepsin K antibody, Abcam), osteoblasts (anti-osteocalcin antibody, Abcam) and apoptosis (anti-activated caspase-3 antibody, Cell Signaling Technologies) were carried out in paraffin-embedded sections. Hearts and kidneys from treated and control mice were fixed in formalin, dehydrated in ethanol, embedded in paraffin, and then cut in 3.5 μm-thick sections. For bone sections, following formalin-fixation, decalcification with 10% EDTA (pH=8), and de-hydration in ethanol, femurs were included in paraffin, then cut in 5 μm-thick sections. After deparaffinization in xylene and re-hydration (100%-95%-70%-50% ethanol scale), slides were placed 10′ in distilled water, then incubated 20′ at 98° C. in Sodium Citrate Buffer (10 mM Sodium Citrate, 0.05% Tween 20, pH 6.0). After blocking with PBS+5% V/V FBS (2 hours at room temperature), the anti Cathepsin K, steocalcin and active Caspase3 antibodies were added (diluted 1:400 in PBS+1% BSA) and allowed to incubate overnight at 4° C. Sections were rinsed twice in PBS+0.05% Tween-20, then endogenous peroxidase was blocked with 1% H2O2 in PBS for 15′. After rinsing three times with PBS+0.05% Tween-20 for 2′, slides were incubated with the secondary antibody (1:1000, Goat anti-Rabbit-HRP, Abcam) for 1 hour at RT. […]

kidney and heart = test: Kidney and heart toxicity in 5TGM1 mice (hematoxylin/eosin, activated caspase-3 IHC); conditions: mouse, in vivo
Procedure: 5TGM1 cells were washed once with PBS (Sigma-Aldrich) and counted. […] Tumor engraftment was assessed by testing IgG2b in the sera once a week. After 14 days the injected mice were randomly divided into four groups (five mice/group). […] Treatment effect on tumor growth was assessed by testing IgG2b and SP17 levels in the sera. Anesthetized animals were euthanized after 28 days and a postmortem examination was conducted on the whole animals and dissected organs.
Immunohistochemistry analysis of markers of osteoclasts (anti-Cathepsin K antibody, Abcam), osteoblasts (anti-osteocalcin antibody, Abcam) and apoptosis (anti-activated caspase-3 antibody, Cell Signaling Technologies) were carried out in paraffin-embedded sections. Hearts and kidneys from treated and control mice were fixed in formalin, dehydrated in ethanol, embedded in paraffin, and then cut in 3.5 μm-thick sections. For bone sections, following formalin-fixation, decalcification with 10% EDTA (pH=8), and de-hydration in ethanol, femurs were included in paraffin, then cut in 5 μm-thick sections. […] Sections were rinsed twice in PBS+0.05% Tween-20, then endogenous peroxidase was blocked with 1% H2O2 in PBS for 15′. After rinsing three times with PBS+0.05% Tween-20 for 2′, slides were incubated with the secondary antibody (1:1000, Goat anti-Rabbit-HRP, Abcam) for 1 hour at RT. […]

LLC = test: Murine lung cancer (LLC) study, measurement of tumor size; format: in vivo; conditions: LLC mice, treatment from 14 days after injection, Carfilzomib 112 ug and 224 ug
Procedure: Measurement of tumor size. 14 days after injection of LLC, the mice were treated with XM and Carfilzomib (112 ug and 224 ug) for two (2) consecutive days three (3) times weekly.

5TGM1 cells [4] = test: Cell viability assay (ViaLight Plus); format: cell-based, murine; conditions: Carf 10 nM, Gal3M 10 ug/ml
Procedure: Cell viability assay. 5TGM1 cells were treated for 48 hours with carfilzomib, Gal3M or the combination of these two agents, then cell viability was assessed by the ViaLight Plus Cell Proliferation and Cytotoxicity BioAssay Kit (Lonza) according to the directions of the manufacturer.

5TGM1 cells [5] = test: Invasion ability of 5TGM1 cells; format: cell-based, murine; conditions: Carf 10 nM, Gal3M 10 ug/ml
[6] = test system: kidney, liver, lung, spleen, and heart; test: Western Blot of apoptotic marker caspase-3 in organs of LLC mice; format: in vivo, mouse; conditions: after 36 days
Source text: FIG. 14 is a Western Blot of the apoptopic marker […]-3 of cells in solid tumors with no treatment, XM alone, Carfilzomib alone, and Carfilzomib plus XM. After 36 days, the mice were sacrificed and organs collected for the Western Blot.

[7] = test system: Raw264.7 cells co-cultured with 5TGM1 cells; test: 5TGM1-driven osteoclastogenesis in vitro (TRAP staining); format: cell-based, murine; conditions: co-culture with 5TGM1, 5 μM carfilzomib, 10 μM Gal3M, 7 days, vs control co-culture
Procedure: Osteoclast differentiation from RAW264.7 cells. For co-culture experiments Raw264.7 and 5TGM1 cells were seeded on a 6-well plate at a density of 1×10^4 cells/well (about 8×103 Raw264.7 and 2×103 […]) and cultured in presence/absence of carfilzomib, Gal3M or carfilzomib plus Gal3M. After 5-7 days cells were fixed on the culture plates with citrate-acetone solution and stained for TRAP (Sigma-Aldrich). Osteoclasts were identified and enumerated under light microscopy by the presence of ≧3 nuclei by using an Olympus microscope.

5TGM1 mice [8] = test: Bone mass density analysis on x-ray images of 5TGM1 mice; format: in vivo; conditions: compared with tumor-bearing untreated mice
Procedure: (§1) Testing Gal3M and carfilzomib in 5TGM1 syngeneic mice model. 5TGM1 cells were washed once with PBS (Sigma-Aldrich) and counted. The suspension containing […] 5TGM1 cells was injected I.V. into 20 C57BL/KaLwRij mice, 5 non-injected mice were used as negative controls. Tumor engraftment was assessed by testing IgG2b in the sera once a week. After 14 days the injected mice were randomly divided into four groups (five mice/group). Control group #1 was injected with PBS-only, group #2 received a dose of Gal3M (100 μg/mouse), group #3 received a dose of carfilzomib (112 μg/mouse) and group #4 received a dose of carfilzomib (112 μg/mouse) plus Gal3M (100 ug/mouse). Treatment effect on tumor growth was assessed by testing IgG2b and SP17 levels in the sera. Anesthetized animals were euthanized after 28 days and a postmortem examination was conducted on the whole animals and dissected organs.
Bone mass density analysis. X-ray images were taken at the euthanasia day using IVIS Lumina Series III Pre-clinical In Vivo Imaging System (Perkin Elmer, USA) and bone mass density analysis (BMD) were performed as previously described (McManus M M, 2011).

5TGM1 cells [9] = test: 5TGM1 syngeneic mice model of MM, serum IgG2b and SP17 ELISA; format: in vivo, C57BL/KaLwRij mice
Procedure: as §1
ELISA for Sp17 and IgG2b. The levels of SP17 and IgG2b in mice serum were measured by direct ELISA as follows. Flat-bottom 96-well polycarbonate plates were coated with 100 μL/well sera diluted 1:25 in carbonate coating buffer (0.1 M Na2CO3, 0.1 M NaHCO3, pH 9.5) at 4° C. overnight. Then, after blocking with PBS supplemented with 1% W/V BSA for 1 hour at RT, plates were incubated with mouse anti-mouse Sp17 or IgG2b primary antibodies (1:500 in PBS, 100 μL/well, Santa Cruz Biotechnology) for 1 hour at RT. Then, plates were washed thrice with PBS with 0.025% V/V Tween-20 (200 μL/well) and incubated at RT with anti-mouse HRP-labeled secondary antibodies (1:10,000 in PBS; Abcam, Cambridge, Mass., USA) for 1 hour. The plates were washed thrice with PBS containing 0.025% V/V Tween-20 (200 μL/well), the TMB colorimetric substrate (Thermo Fisher Scientific, Waltham, Mass., USA) was added, and after 5 minutes the absorbance was measured (0.1 s) at 450 nm on a Victor 2 multimodal microplate reader (PerkinElmer, Billerica, Mass., USA). All samples were run in triplicates.

## CC(C)C[C@H](NC(=O)[C@H](CCc1ccccc1)NC(=O)CN1CCOCC1)C(=O)N[C@@H](Cc1ccccc1)C(=O)N[C@@H](CC(C)C)C(=O)[C@@]1(C)CO1 [Carfilzomib]
Lung cancer (tumor)
  effect on lung cancer (AKAP-4 ELISA): have an effect on lung cancer (tumor)
5TGM1 cells [1]; Carf 10 nM, Gal3M 10 ug/ml
  chemotaxis of 5TGM1 (in words): significantly inhibited
5TGM1 cells [1]; Mus musculus, 5TGM1 cells, 4 hours, Gal3M 10 μg/ml, carfilzomib 10 nM, read-out: inhibition of the ability of 5TGM1 cells to migrate in response to chemotactic stimuli
  inhibition at 0.01 µM: 40%
[2]
  treated patients discontinuing therapy because of renal and cardiac side effects: approximately 15%
5TGM1 mice [3]
  Cathepsin K-positive cells (osteoclasts marker): decrease
  osteocalcin-positive cells (osteoblasts marker): increase
Kidney and heart; C57BL/KaLwRij, 28 days
  histological analysis of kidney and heart: morphology and activated caspase-3: associated with changes in cellular architecture and caspase-3 activation
Kidney and heart
  kidney toxicity: kidney toxicity both at minimum and maximum dose
LLC
  tumor growth (tumor size): inhibited tumor growth
5TGM1 cells [4]
  growth of 5TGM1 (in words): significantly inhibited
5TGM1 cells [5]
  invasion ability of 5TGM1 (in words): significantly inhibited
[6]
  apoptosis (caspase-3 Western Blot) in mouse organs: increased apoptosis
[7]
  decrease in formation of TRAP+/multinucleated Raw264.7 cells: 55%
5TGM1 mice [8]; distal femur end
  BMD increase ROI2: 19%
5TGM1 mice [8]; proximal femur end
  BMD increase ROI1: 28%
5TGM1 mice [8]; tibia
  BMD increase ROI3: 12%
5TGM1 cells [9]; day 21, treated on day 14, compared to untreated MM bearing mice
  decrease in IgG2b levels: 14%
5TGM1 cells [9]; day 28, compared to untreated mice
  decrease in SP17 serum levels: 37%
5TGM1 cells [9]; day 28, treated on day 14, compared to untreated MM bearing mice
  decrease in IgG2b levels: 36%

From patent US20160122407A1, “Galectin-3 Inhibitor (Gal-3M) is Associated with Additive Anti-Myeloma and Anti-Solid Tumor Effects, Decreased Osteoclastogenesis and Organ Protection when Used in Combination with Proteasome Inhibitors” (Texas Tech University System, priority 2014, published 2016)
